From article PMC11525561, “Gliflozins, sucrose and flavonoids are allosteric activators of lecithin-cholesterol acyltransferase” (Scientific Reports, 2024)
Like-named read-outs stand apart in the source and are kept apart here.

Assays:
LCAT [1] = target: T1, LCAT (Homo sapiens, UniProt P04180); set-up: method as in PMID 4214409; conditions: blood of diabetes patients before and after insulin treatment; cited from earlier work
T1 sequence (P04180 25-440): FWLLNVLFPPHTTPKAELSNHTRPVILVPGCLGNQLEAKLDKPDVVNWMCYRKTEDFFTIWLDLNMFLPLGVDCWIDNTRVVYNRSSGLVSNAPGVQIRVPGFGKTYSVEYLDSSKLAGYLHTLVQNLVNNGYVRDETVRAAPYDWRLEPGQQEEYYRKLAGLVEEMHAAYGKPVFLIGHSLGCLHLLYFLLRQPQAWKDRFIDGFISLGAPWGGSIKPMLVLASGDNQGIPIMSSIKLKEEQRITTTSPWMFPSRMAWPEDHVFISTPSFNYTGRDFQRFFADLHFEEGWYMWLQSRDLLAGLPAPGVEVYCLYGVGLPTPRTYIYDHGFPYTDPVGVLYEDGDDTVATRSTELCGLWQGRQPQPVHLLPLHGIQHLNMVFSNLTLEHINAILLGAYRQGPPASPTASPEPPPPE

LCAT [2] = target: T1, LCAT; test: DHE esterification acyltransferase assay with synthetic HDL (sHDL); assay type: biochemical; set-up: 6x histidine-tag (C); made in house; host or cells: 293T cells (ATCC CRL-3216); conditions: for acyltransferase Emax / Emax: normalized against LCAT + DMSO; for acyltransferase efficiency: kcat divided by Km
Description: The acyltransferase activity of LCAT was measured by using the fluorescent sterol DHE as a substrate. DHE is integrated in the structure of discoidal synthetic HDL (sHDL) made of peptides (22A) and phospholipids (DMPC). As a consequence of the acyltransferase activity of LCAT, DHE is esterified and stored in the inner core of sHDL as DHE-ester. The esterification is responsible for a shift in the emission wavelength of DHE from 372 nm to 425 nm, allowing the exclusive detection of DHE-ester and monitoring of the reaction.
DHE-sHDL was prepared via thermal cycling. In a glass vial, DHE and DMPC dissolved in chloroform were mixed with a molar ratio of 1:9. The organic solvent was dried with Rotavapor R-200 (BUCHI, Switzerland) at room temperature. The resulting dried thin lipid layer was hydrated with assay buffer (PBS 20 mM + EDTA 1 mM) and vortexed until complete dissolution. The solution was homogenized in a water bath sonicator at room temperature until transparency. 22A peptides dissolved in assay buffer were added to the vial (lipid to protein 2:1 w/w). The solution was incubated via three heating-cooling cycles (50 °C x 3 min; 4 °C x 3 min). […] The acyltransferase activity assay was performed in 384 well low volume black microplates with a final volume of 25 µL. PAM (0.1 mg/mL in DMSO) or DMSO were incubated with LCAT (5 µg/mL in assay buffer + 60 µM albumin (Merck)) 1:100 v/v at 37 °C gently shaken. After 30 min incubation, 10 µL of each reaction (LCAT + DMSO or LCAT + PAM) was added to the plate. To start the reaction, 10 µL of DHE-sHDL solution were added in the wells. The plate was incubated for 1 h at 37 °C gently shaken. Reactions were stopped by the addition of 5 µL of stop solution (assay buffer + 5 units/mL cholesterol oxidase COx + 7% Triton X-100). Plates went through a second round of incubation at 37 °C gently shaken for 1 h to extinguish the residual fluorescence of unesterified DHE. […] DHE-ester fluorescence was detected at an excitation wavelength of 325 nm and an emission wavelength of 425 nm using Varioskan LUX. Reactions without LCAT were used for background subtraction, while reactions without LCAT and stop solution without COx were used to generate a standard curve for DHE (λex 325 nm, λem 372 nm). Reactions were performed in triplicates with three independent experiments. Due to the light sensitivity of DHE, samples were protected from light during the entire preparation and assay. Data was processed via background subtraction, divided by the slope of the standard curve to obtain the amount of DHE-esters in every well and then divided further by the reaction time to determine the rate. The acyltransferase activity (DHE-ester formed) was plotted as a function of the DHE concentration. Data were fitted to the Michaelis-Menten kinetic equation by non-linear regression. Apparent Vmax and Km were calculated using OriginPro 2021b software, while acyltransferase efficiency of each PAM was calculated by dividing kcat by Km. […] The acyltransferase activities of our PAMs were compared to the reference compound A (Supplementary Fig. 2).
PAMs were diluted in DMSO reaching a final concentration of 0.001, 0.01, 0.1, 1 and 10 µM in the wells. Reactions were conducted exactly as above, using the same LCAT concentration and the same volumes. The experiment was performed in triplicate with three independent experiments. Fluorescence signals were processed via background subtraction (DHE-sHDL + buffer + stop solution), divided by the slope of the standard curve to obtain the amount of DHE-esters in every well and then divided further by the reaction time to determine the rate. Data were normalized against no PAM control (LCAT + DMSO). The acyltransferase activity (DHE-ester formed) was plotted as a function of the PAM concentration.

LCAT [3] = target: T1, LCAT; test: MUP based phospholipase assay; assay type: biochemical; set-up: 6x histidine-tag (C); made in house; host or cells: 293T cells (ATCC CRL-3216); conditions: for phospholipase efficiency: kcat divided by Km; for increase of phospholipase Vmax / increase of phospholipase efficiency: versus LCAT without compounds
Description: The phospholipase activity of LCAT was evaluated by using MUP as a substrate. The reaction was monitored with the increased fluorescence signal due to the formation of the reaction product MU. The assay was performed at room temperature in reaction buffer (0.1 M sodium phosphate buffer, pH 7.4). 55 µL of LCAT in reaction buffer (0.01 mg/mL) were incubated at 37 °C gently shaken with 0.41 µL of PAM (2 mg/mL in DMSO) or DMSO. After 1 h incubation, 2 µL of each reaction (LCAT + DMSO, LCAT + PAM, reaction buffer + PAM) was added to a black 384 well microplate, low volume (Corning). A MUP stock solution 1 mg/mL in DMSO + 3% Triton X-100 was diluted in a reaction buffer to 0, 10, 40, 60 and 120 µM. 18 µL of each dilution was added to the plate to start the reaction. The MUP stock solution was diluted immediately before use due to the self-hydrolysis of MUP to MU in aqueous buffers. The phospholipase activity of LCAT was monitored by fluorescence signal using Varioskan LUX (Thermo Scientific) plate reader at an excitation wavelength of 340 nm and an emission wavelength of 460 nm every 10 min for 60 min. Background signal due to MUP self-hydrolysis was subtracted from each result. Reactions were performed in triplicates with three independent experiments. Reaction rates were obtained by dividing the data by the assay time. To calculate the amount of MU produced in each reaction, a standard curve was generated from a MU stock solution 100 mM in DMSO and diluted further in reaction buffer. The phospholipase activity (MU mM) was plotted as a function of the MUP concentration. Data were fitted to the Michaelis-Menten kinetic equation by non-linear regression. Apparent Vmax and Km were calculated with OriginPro 2021b (MA, USA) software (version 9.8.5.212), while phospholipase efficiency of each PAM was calculated by dividing kcat by Km. The absence of fluorescence interference coming from PAMs was checked at an excitation wavelength of 340 nm before starting the assay (Supplementary Fig. 3). The phospholipase activities of our PAMs were compared to a positive control compound A (Supplementary Fig. 2)[17].

[4] = cited from earlier work
LCAT [5] = tested on: LCAT; set-up: method as in PMID 30479275; conditions: MUP assay; cited from earlier work
[6] = set-up: method as in PMID 9827549, PMID 19110406; conditions: cited from earlier work
[7] = DHE 50 µM, PAM concentration varied
[8] = PAM 3 µM, DHE concentration varied, mean ± SEM
[9] = MUP concentration varied, mean ± SEM
[10] = DHE 50 µM, PAM concentration varied, mean ± SEM of triplicate, read-out: acyltransferase EC50
[11] = PAM 3 µM, versus LCAT without compounds

| SMILES | increase of LCAT acyltransferase activity (LCAT [2]; [7]) | acyltransferase Vmax (LCAT [2]; [8]) | acyltransferase efficiency (LCAT [2]; PAM 3 µM) | phospholipase Vmax (LCAT [3]; [9]) | phospholipase efficiency (LCAT [3]) | EC50 (LCAT [2]; [10]) | Emax (LCAT [2]; DHE 50 µM) | improvement of acyltransferase efficiency (LCAT [2]; [11]) | also measured |
| --- | --- | --- | --- | --- | --- | --- | --- | --- | --- |
| OC[C@H]1OC(O)[C@H](O)[C@@H](O)[C@@H]1O (stereo partly shown) [glucose] | – | – | – | – | – | – | – | – | activation of LCAT (LCAT [1]): cannot activate LCAT |
| CCOc1ccc(Cc2cc([C@@H]3O[C@H](CO)[C@@H](O)[C@H](O)[C@H]3O)ccc2Cl)cc1 [dapagliflozin] | roughly 100% | 12.13 ± 0.46 µM h^− 1 | 31.54 ± 2.93 µM⁻¹ h⁻¹ | 11.68 ± 1.15 µM h^− 1 | 12.82 ± 2.80 µM⁻¹ h⁻¹ | 80 ± 40 nM | 196 ± 13.4% | – | bound to proteins in plasma [4]: 91%; increase of phospholipase Vmax (LCAT [3]): 70% |
| Cc1ccc([C@@H]2O[C@H](CO)[C@@H](O)[C@H](O)[C@H]2O)cc1Cc1ccc(-c2ccc(F)cc2)s1 [canagliflozin] | 150% | 14.78 ± 0.34 µM h^− 1 | 44.46 ± 2.43 µM⁻¹ h⁻¹ | 15.70 ± 0.66 µM h^− 1 | 34.63 ± 0.97 µM⁻¹ h⁻¹ | 80 ± 20 nM | – | roughly 100% | bound to proteins in plasma [4]: 99%; acyltransferase Emax (LCAT [2]; DHE 50 µM): 254.34±23.72%; Km (LCAT [2]; [8]): 8.37 ± 0.57 µM; increase of acyltransferase Vmax (LCAT [2]; [11]): 70%; Km (LCAT [3]; [9]): 22.7 ± 0.95 µM; increase of phospholipase Vmax (LCAT [3]): 130%; increase of phospholipase efficiency (LCAT [3]): 340% |
| N#Cc1cnc(N2CCC(c3n[nH]c4c3C(O)(C(F)(F)F)CC(=O)N4)CC2)cc1C(F)(F)F (stereo not shown) [1b] | – | – | – | – | – | – | – | – | phospholipase activity compared to LCAT (LCAT [5]): 230% |

Continued, in another order:

| increase of LCAT acyltransferase activity (LCAT [2]; [7]) | acyltransferase Vmax (LCAT [2]; [8]) | acyltransferase efficiency (LCAT [2]; PAM 3 µM) | phospholipase Vmax (LCAT [3]; [9]) | phospholipase efficiency (LCAT [3]) | EC50 (LCAT [2]; [10]) | Emax (LCAT [2]; DHE 50 µM) | improvement of acyltransferase efficiency (LCAT [2]; [11]) | SMILES | also measured |
| --- | --- | --- | --- | --- | --- | --- | --- | --- | --- |
| no effect | 6.58 ± 0.26 µM h^− 1 | 18.92 ± 2.45 µM⁻¹ h⁻¹ | 7.95 ± 1.90 µM h^− 1 | 6.28 ± 1.06 µM⁻¹ h⁻¹ | – | – | – | COC(=O)Nc1nc2ccc(C(=O)c3ccccc3)cc2[nH]1 [mebendazole] | effect on acyltransferase activity at 21.6 µM DHE (LCAT [2]; 21.6 µM DHE, PAM 3 µM): inhibited activity slightly; acyltransferase EC50 (LCAT [2]; DHE 50 µM, PAM concentration varied, mean ± SEM of triplicate): no effect; acyltransferase Emax (LCAT [2]; DHE 50 µM): no effect |
| roughly 100% | 11.71 ± 0.43 µM h^− 1 | 36.95 ± 2.13 µM⁻¹ h⁻¹ | 10.91 ± 1.50 µM h^− 1 | 17.11 ± 4.72 µM⁻¹ h⁻¹ | 100 ± 10 nM | 191 ± 16.1% | roughly 100% | O=c1cc(-c2ccc(O)c(O)c2)oc2cc(O)cc(O)c12 [luteolin] | – |
| roughly 100% | 13.55 ± 0.67 µM h^− 1 | 22.69 ± 1.94 µM⁻¹ h⁻¹ | 10.71 ± 0.49 µM h^− 1 | 19.60 ± 0.01 µM⁻¹ h⁻¹ | 120 ± 40 nM | 211 ± 21.4% | – | O=C1c2c(O)cc(O)cc2OC(c2ccc(O)c(O)c2)C1O (stereo not shown) [taxifolin] | – |
| roughly 100% | 11.18 ± 0.80 µM h^− 1 | 38.88 ± 9.05 µM⁻¹ h⁻¹ | 8.79 ± 0.81 µM h^− 1 | 22.43 ± 4.38 µM⁻¹ h⁻¹ | – | 176 ± 12.5% | roughly 100% | OC[C@H]1O[C@@](CO)(O[C@H]2O[C@H](CO)[C@@H](O)[C@H](O)[C@H]2O)[C@@H](O)[C@@H]1O [sucrose] | oral bioavailability [6]: poor; EC50 (LCAT [2]): 120 ± 60 nM; increase of phospholipase efficiency (LCAT [3]): 180% |
